Data as given in US5004756A, “Anti-cancer activity potentiator” (priority 1988, dated 1991).

Assays:
[1] = Particle charge / formation of lipid emulsion; assay type: physicochemical
Excerpt: To secure fine particles of 1 micron or below in size which can actually be administered as a lipid emulsion, the particles should have a charge within the range of +20 mV to +50 mV.

[2] = system: PLC/Col; test: Colony formation (proliferation) inhibition, colchicin-resistant human hepatoma cells (A-I Part 1); assay type: cell-based; details: Homo sapiens, 216 h; PLC/Col; 9 days; Table 1; read-out: IC50
Procedure: (§1) Sensitive cell line V79/S and ADM-resistant cell line V79/ADM of the Chinese hamster were used, and sensitive cell line PLC/S and cholchicin-resistant cell line PLC/Col, as human hepatoma cells.
(§2) The sensitive cell lines (400 cells) or the resistant cell lines (600 cells) were each incubated for 24 hours in 10 ml of Eagle's MEM medium containing 10% bovine serum. Each of the drugs indicated in Table 1 below was dissolved in ethanol, and 50 microliters of the resulting solution was added to the medium. The incubation was further carried out for 9 days. The concentration of the drug which inhibits 50% of the colony formation (proliferation) of the tumor cells was calculated.
(§3) V79/S and V79/ADM were tested by using all of the drugs described above, but PLC/S and PLC/Col were tested by using only the malate of formula (I), adriamycin and peplomycin.
(§4) The concentrations (micrograms/ml) required to inhibit 50% of the proliferation of the tumor cells, expressed by IC50, are shown in Table 1.

[3] = Acute toxicity test in mice, oral; assay type: in vivo, mouse; details: oral, 2,000 mg/kg
Procedure: Using mice, the malate of formula (I) obtained as above was tested for toxicity. […] Toxicity was neither noted.

[4] = system: V79/ADM; test: Colony formation (proliferation) inhibition, ADM-resistant Chinese hamster cells (A-I Part 1); assay type: cell-based; details: Cricetulus griseus, 216 h; V79/ADM; 9 days; Table 1; read-out: IC50
Procedure: as §1, §2, §3, §4

[5] = system: PLC/S; test: Anti-cancer activity potentiating action, colony formation, PLC/S parent cells (A-III); assay type: cell-based, human; details: Homo sapiens; PLC/S; alone; Table 7; read-out: IC50, anti-cancer agent alone
Procedure: (§5) The anti-cancer activity potentiating action of the malate of formula (I) was examined using Chinese hamster cells (sensitive cell line V79/S and ADM-resistant cell line V79/ADM), human hepatoma cells (sensitive cell line PLC/S and colchicin-resistant cell line PLC/Col) and mouse leukemia cells (sensitive cell line L5178Y/S) and aclarubicin-resistant cell line L5178Y/ACR).
(§6) Of these tumor cells, the sensitive cells (400 cells) and the resistant cells (600 cells) were each incubated in 10 ml of Eagle's MEM medium containing 10% bovine serum for 24 hours, and then each of the test drugs indicated in Table 6 was added. Thereafter, the incubation was carried out for 9 days. The concentration (IC50 : micrograms/ml) of the test drug required to inhibit 50% of the colony formation (proliferation) of the tumor cells was calculated.
(§7) As anti-cancer agents, adriamycin (ADM) and peplomycin (PEP) were used in combination with the malate of formula (I) (5 micrograms/ml).

[6] = system: V79/ADM; test: Anti-cancer activity potentiating action, colony formation, V79/ADM resistant cells (A-III); assay type: cell-based, Chinese hamster; details: Cricetulus griseus; V79/ADM; alone; Table 6; read-out: IC50, anti-cancer agent alone
Procedure: as §5, §6
(§8) (A) Chinese hamster V79 cells
(§9) As anti-cancer agents, there were used adriamycin (ADM), aclarubicin (ACR), actinomycin D (ACD), 5-fluorouracil (5-FU), cytarabin (Ara-C), cisplatin (CDDP), methotrexate (MTX), mitomycin C (MMC), nimustine (ACNU), mitoxantrone, etoposide ([…]), vincristine (VCR), bleomycin (BLM) and peplomycin (PEP). For the sensitive cells, the anti-cancer agents were used in combination with 10 micrograms/ml of the malate of formula (I), and for the resistant cells, the anti-cancer agents were used in combination with the malate of formula (I) 3 micrograms/ml, 5 micrograms/ml, and 10 micrograms/ ml.

[7] = system: V79/S; test: Anti-cancer activity potentiating action, colony formation, V79/S parent cells (A-III); assay type: cell-based, Chinese hamster; details: Cricetulus griseus; V79/S; alone; Table 6; read-out: IC50, anti-cancer agent alone
Procedure: as §5, §6, §8, §9

[8] = system: PLC/S; test: Colony formation (proliferation) inhibition, sensitive human hepatoma cells (A-I Part 1); assay type: cell-based; details: Homo sapiens, 216 h; PLC/S; 9 days; Table 1; read-out: IC50
Procedure: as §1, §2, §3, §4

[9] = system: B16 melanoma cells; test: Life prolongation of BDF1 mice with B16 melanoma (A-II Part 1); assay type: in vivo, mouse (male BDF1); details: 5 mg/kg i.p., three times every 4 days
Procedure: Three to eight male BDF1 mice having a body weight of 20±3 g were used, and B16 melanoma cells were selected as tumor cells. The melanoma cells were homogenized, and the homogenate was transplanted subcutaneously to the mice in an amount of 0.5 ml/mouse. After 7 days, the malate of formula (I) in accordance with this invention and an anti-cancer agent, neocartinostatin (NCS), were intraperitoneally administered either singly or in combination three times every 4 days in a dose of 5 mg/kg and 0.45 mg/kg for each time. The life prolonging rate of the mice was determined by the treated group/non-treated control group (T/C %).

[10] = system: PLC/Col; test: Anti-cancer activity potentiating action, colony formation, PLC/Col resistant cells (A-III); assay type: cell-based, human; details: Homo sapiens; PLC/Col; alone; Table 7; read-out: IC50, anti-cancer agent alone
Procedure: as §5, §6, §7

[11] = system: clinically isolated human cancer cells (lung adenocarcinoma, lung squamous cell carcinoma, osteosarcoma, ovarian carcinoma); test: Anti-tumor activity on clinically isolated human cancer cells, morphological changes (A-I Part 2); assay type: cell-based; details: 3 or 30 μg/ml (3 μg/ml for 3 examples, 30 μg/ml for 5)
Procedure: Lung adenocarcinoma, lung squamous cell carcinoma, osteosarcoma and ovarian carcinoma were selected as clinically isolated human cancer cells, and the anti-tumor activities of various drugs were examined. Specifically, various tumor tissues were individually cut to thin pieces by a razor, and by washing in saline by using a 1 mm mesh, the connective tissues were removed. The resulting solution was centrifuged at 1000 rpm for 1 minute to remove necrotizing substances. Washing with saline gave tumor cells.
They were incubated at 37° for 4 to 8 hours. Thereafter, pumping was carried out to disperse the tissue pieces. Then, centrifugation at 1000 rpm for 5 minutes, cell coating and Giemsa staining were performed. The anti-tumor activity of each drug was examined on the basis of observation of the morphological changes of the tumor cells under a microscope.
The experiment was conducted on two examples of each tumor cells (total 8 examples).

[12] = system: V79/S; test: Colony formation (proliferation) inhibition, sensitive Chinese hamster cells (A-I Part 1); assay type: cell-based; details: Cricetulus griseus, 216 h; V79/S; 9 days; Table 1; read-out: IC50
Procedure: as §1, §2, §3, §4

[13] = system: Meth-A; test: Tumor proliferation inhibiting activity, Meth-A (A-IV); assay type: in vivo, BALB/c rats; details: for Number of surviving animals: 16 days later; for T/C (tumor weight) / Tumor weight mean ± S.D.: day 16
Procedure: Female BALB/c rats (7 weeks old), 8 per group, were used. Tumor cells (Meth-A) induced by methyl cholanthrene were transplanted intraperitoneally to the rats, and then the malate of formula (I) was administered intraperitoneally to the rats. The proliferation inhibiting activity of the malate was examined by comparing the weight of the tumor cells with that of the tumor cells in the non-treated control group.
The dose of the malate of formula (I) was 1.25, 2.5, 5.0, and 10.0 mg/kg/day. Mitomycin C (MMC) was administered as another anti-cancer agent. The weight of the tumor cells was measured, and the proliferation inhibiting activity was determined.
The weight (g) of the tumor with respect to that of the tumor in the control group (T/C, %) after 16 days from the transplantation of the tumor cells, and the number of surviving rats after 16 days are shown in Table 8.

[14] = 1.25 mg/kg/day i.p., days 1, 3, 5
[15] = 2.5 mg/kg/day i.p., days 1, 3, 5

COc1ccc(CNCCN(CC=C(C)CCC=C(C)CCC=C(C)CCC=C(C)CCC=C(C)CCC=C(C)CCC=C(C)CCC=C(C)CCC=C(C)C)Cc2ccc(OC)c(OC)c2)cc1OC [compound (II), N-solanesyl-N,N'-bis(3,4-dimethoxybenzyl)ethylenediamine]
Formation of a lipid emulsion [1]: cannot be formed into a lipid emulsion
Particle charge within +20 mV to +50 mV / aggregation ([1]; lipid emulsion particles): particle aggregation occurs

COc1ccc(CNCCN(CC=C(C)CCC=C(C)CCC=C(C)CCC=C(C)CCC=C(C)CCC=C(C)CCC=C(C)CCC=C(C)CCC=C(C)C)Cc2ccc(OC)c(OC)c2)cc1OC [Compound (I), N-solanesyl-N,N'-bis(3,4-dimethoxybenzyl)ethylenediamine malate]
IC50 [2]: 1.7 µg/mL
Acute toxicity, abnormality in mice [3]: no abnormality was found
IC50 [4]: 3 µg/mL
IC50 [5]: 6.8 µg/mL
IC50 [6]: 3 µg/mL
IC50 [7]: 11.5 µg/mL
IC50 [8]: 6.8 µg/mL
T/C (life prolonging rate at M.S.T.) [9]: 165%
IC50 [10]: 1.7 µg/mL
Efficacy ratio (rated significant by Fisher's test) [11]: 5/8
IC50 [12]: 11.5 µg/mL
Number of surviving animals [13, 14]: 8/8
T/C (tumor weight) [13, 14]: 75%
Tumor weight mean ± S.D. [13, 14]: 1.255 ± 0.533 g
Number of surviving animals [13, 15]: 8/8
T/C (tumor weight) [13, 15]: 79%
Tumor weight mean ± S.D. [13, 15]: 1.327 ± 0.350 g
Number of surviving animals ([13]; 5.0 mg/kg/day i.p., day 1): 8/8
T/C (tumor weight) ([13]; 5.0 mg/kg/day i.p., day 1): 83%
Tumor weight mean ± S.D. ([13]; 5.0 mg/kg/day i.p., day 1): 1.389 ± 0.644 g
Number of surviving animals ([13]; 10.0 mg/kg/day i.p., day 1): 8/8
T/C (tumor weight) ([13]; 10.0 mg/kg/day i.p., day 1): 65%
Tumor weight mean ± S.D. ([13]; 10.0 mg/kg/day i.p., day 1): 1.091 ± 0.659 g
